The nature of one data set: in vitro. To be noted: human. The protocol:
For the antiviral assay utilizing MT4 cells, 0.4 μL of […] test concentration of 3-fold serially diluted compound in DMSO was added to 40 μL of cell growth medium (RPMI 1640, 10% FBS, 1% penicilline/Streptomycine, 1% L-Glutamine, 1% HEPES) in each well of 384-well assay plates (10 concentrations) in quidruplicate.
1 mL aliquots of 2×10^6 MT4 cells are pre-infected for 1 and 3 hours respectively at 37° C. with 25 μL (MT4) or of either cell growth medium (mock-infected) or a fresh 1:250 dilution of an HIV-IIIb concentrated ABI stock (0.004 m.o.i. for MT4 cells). Infected and uninfected cells are diluted in cell growth medium and 35 μL of 2000 (for MT4) cells is added to each well of the assay plates.
Assay plates were then incubated in a 37° C. incubator. After 5 days of incubation, 25 μL of 2× concentrated CellTiter-Glo™ Reagent (catalog #G7573, Promega Biosciences, Inc., Madison, Wis.) was added to each well of the assay plate. Cell lysis was carried out by incubating at room temperature for 2-3 minutes, and then chemiluminescence was read using the Envision reader (PerkinElmer).

The target in another data set is PXR (Homo sapiens (Human), UniProt O75469). Put plainly: Human PXR activation assay (luciferase reporter gene assay, DPX2 cells). Type of data set: cell-based. To be noted: human. The protocol: A stably transformed tumor cell line (DPX2) was plated on 96-well microtiter plates. DPX2 cells harbor the human PXR gene (NR112) and a luciferase reporter gene linked to two promoters identified in the human CYP3A4 gene, namely XREM and PXRE. […] The number of viable cells was determined and the reporter gene activity was assessed. Positive control: […]
Chain of PXR (O75469 whole entry): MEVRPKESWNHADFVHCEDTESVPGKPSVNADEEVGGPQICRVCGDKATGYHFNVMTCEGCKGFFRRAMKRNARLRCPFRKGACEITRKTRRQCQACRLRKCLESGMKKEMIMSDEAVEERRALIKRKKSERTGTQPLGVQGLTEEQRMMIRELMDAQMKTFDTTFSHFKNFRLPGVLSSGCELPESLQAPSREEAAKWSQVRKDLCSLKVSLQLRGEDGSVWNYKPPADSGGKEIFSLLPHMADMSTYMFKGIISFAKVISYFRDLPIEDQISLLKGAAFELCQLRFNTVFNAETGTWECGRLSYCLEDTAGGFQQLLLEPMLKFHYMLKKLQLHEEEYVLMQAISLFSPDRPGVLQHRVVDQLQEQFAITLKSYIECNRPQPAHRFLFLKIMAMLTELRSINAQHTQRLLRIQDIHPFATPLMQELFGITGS
Background: Reporter assays use an easily measured gene product as a stand-in for the process of interest.

Setting [1] is: 15 μM, relative to maximum fold induction by 10 or 20 μM rifampicin, DPX2 cells, 24 hours, read-out: % Emax at 15 μM.

Where two headings read alike, the source gives them in different places.

Broadly, the Emax is the maximal effect, on the per cent scale that the assay sets. Regarding `O=C(N[C@@H](c1ccc(F)cc1F)C(F)(F)F)c1cn2c(c(O)c1=O)C(=O)N1C(C2)O[C@@H]2CC[C@H]1C2` (stereo partly drawn) [Compound 54, (2R,5S)-N—((S)-1-(2,4-difluorophenyl)-2,2,2-trifluoroethyl)-8-hydroxy-7,9-dioxo-2,3,4,5,7,9,13,13a-octahydro-2,5-methanopyrido[1′,2′:4,5]pyrazino[2,1-b][1,3]oxazepine-10-carboxamide], the CC50 at 5 days in the data set “in vitro” (CC50 nM in MT-4) is 3240 nM. The maximal effect (Emax) at 24 h, 15 µM at PXR came to 2%.
In “in vitro” (CC50 nM in MT-4), `O=C(NCc1cc(F)ccc1F)c1cn2c(c(O)c1=O)C(=O)N1[C@H]3CC[C@H](C3)O[C@@H]1C2` [Compound 89, (2R,5S,13aR)-N-(2,5-difluorobenzyl)-8-hydroxy-7,9-dioxo-2,3,4,5,7,9,13,13a-octahydro-2,5-methanopyrido[1′,2′:4,5]pyrazino[2,1-b][1,3]oxazepine-10-carboxamide] had a CC50 at 5 days of 4630 nM. For the same compound, the Emax at 24 h, 15 µM at PXR was determined as 5%.
In the case of `O=C(NCc1ccc(F)cc1F)c1cn2c(c(O)c1=O)C(=O)N1C(C2)[C@H]2CC[C@@H]1C2` (stereo in doubt) [Compound 38, (1S,4R,12aR)-N-(2,4-difluorobenzyl)-7-hydroxy-6,8-dioxo-1,2,3,4,6,8,12,12a-octahydro-1,4-methanodipyrido[1,2-a:1′,2′-d]pyrazine-9-carboxamide], in “in vitro” (CC50 nM in MT-4), the CC50 at 5 days was determined as 10200 nM. The Emax at 24 h, 15 µM at PXR (setting [1]) turned out to be 7%.
Consider `O=C(NCc1ccc(F)cc1Cl)c1cn2c(c(O)c1=O)C(=O)N1[C@H]3CC[C@H](C3)[C@@H]1C2` [Compound 68, (1R,4S,12aR)-N-(2-chloro-4-fluorobenzyl)-7-hydroxy-6,8-dioxo-1,2,3,4,6,8,12,12a-octahydro-1,4-methanodipyrido[1,2-a:1′,2′-d]pyrazine-9-carboxamide], for which the CC50 at 5 days in “in vitro” (CC50 nM in MT-4) is 4180 nM. The compound also returned a maximal effect (Emax) at 24 h, 15 µM on PXR of 6%.
For `O=C(NCc1c(F)cc(F)cc1F)c1cn2c(c(O)c1=O)C(=O)N1[C@@H]3C[C@@H](C(F)C3F)[C@@H]1C2` (stereo partly drawn) [Compound 103, (1R,4R,12aR)-2,3-difluoro-7-hydroxy-6,8-dioxo-N-(2,4,6-trifluorobenzyl)-1,2,3,4,6,8,12,12a-octahydro-1,4-methanodipyrido[1,2-a:1′,2′-d]pyrazine-9-carboxamide], in that order: 35100 nM and 0%.
In the data set “in vitro” (CC50 nM in MT-4), `O=C(NC1(c2ccc(F)cc2F)CCC1)c1cn2c(c(O)c1=O)C(=O)N1C(C2)O[C@H]2CC[C@@H]1C2` (stereo partly drawn) [Compound 32, (2S,5R)-N-(1-(2,4-difluorophenyl)cyclobutyl)-8-hydroxy-7,9-dioxo-2,3,4,5,7,9,13,13a-octahydro-2,5-methanopyrido[1′,2′:4,5]pyrazino[2,1-b][1,3]oxazepine-10-carboxamide] showed a CC50 at 5 days of 4680 nM. This compound also had an Emax at 24 h, 15 µM on PXR of 14%.
For `O=C(NCc1ccc(Cl)cc1F)c1cn2c(c(O)c1=O)C(=O)N1[C@H]3CC[C@H](C3)[C@@H]1C2` [Compound 92, (1R,4S,12aR)-N-(4-chloro-2-fluorobenzyl)-7-hydroxy-6,8-dioxo-1,2,3,4,6,8,12,12a-octahydro-1,4-methanodipyrido[1,2-a:1′,2′-d]pyrazine-9-carboxamide], in that order: 4550 nM and 3%.
In turn, `O=C(NCc1ccc(F)cc1F)c1cn2c(c(O)c1=O)C(=O)N1C(C2)[N@@]2CC[C@@H]1C2` (stereo partly drawn) [Compound 4, (1S,4R)-N-(2,4-difluorobenzyl)-7-hydroxy-6,8-dioxo-3,4,6,8,12,12a-hexahydro-2H-1,4-methanopyrido[1′,2′:4,5]pyrazino[1,2-a]pyrimidine-9-carboxamide] yielded a CC50 at 5 days in the data set “in vitro” (CC50 nM in MT-4) of 45800 nM. The same compound returned a maximal effect (Emax) at 24 h, 15 µM on PXR of 3%.
The like results for `O=C(NCc1cc(Cl)c(F)cc1F)c1cn2c(c(O)c1=O)C(=O)N1[C@H]3CC[C@H](C3)[C@@H]1C2` [Compound 80, (1R,4S,12aR)-N-(5-chloro-2,4-difluorobenzyl)-7-hydroxy-6,8-dioxo-1,2,3,4,6,8,12,12a-octahydro-1,4-methanodipyrido[1,2-a:1′,2′-d]pyrazine-9-carboxamide] were, in that order, 5040 nM and 2%.
Compound `O=C(NCc1ccc(F)cc1F)c1cn2c(c(O)c1=O)C(=O)N1C(C2)[N@@]2CCC[C@@H]1C2` (stereo partly drawn) [Compound 20, (1S,5R)-N-(2,4-difluorobenzyl)-8-hydroxy-7,9-dioxo-2,3,4,5,7,9,13,13a-octahydro-1,5-methanopyrido[1′,2′:4,5]pyrazino[1,2-a][1,3]diazepine-10-carboxamide] gave a CC50 at 5 days in “in vitro” (CC50 nM in MT-4) of 28000 nM. Also, the maximal response (Emax) at 24 h, 15 µM at PXR turned out to be 2%.
The like results for `O=C(NC1(c2ccc(F)cc2F)CC1)c1cn2c(c(O)c1=O)C(=O)N1C(C2)O[C@H]2CCC[C@@H]1C2` (stereo partly drawn) [Compound 28, (2S,6R)-N-(1-(2,4-difluorophenyl)cyclopropyl)-9-hydroxy-8,10-dioxo-3,4,5,6,8,10,14,14a-octahydro-2H-2,6-methanopyrido[1′,2′:4,5]pyrazino[2,1-b][1,3]oxazocine-11-carboxamide] were, in that order, 18700 nM and 6%.
The like results for `O=C(NCc1ccc(F)c(Cl)c1F)c1cn2c(c(O)c1=O)C(=O)N1[C@@H]3C[C@H]([C@@H]1C2)C(F)(F)C3` [Compound 58, (1R,4R,12aR)-N-(3-chloro-2,4-difluorobenzyl)-2,2-difluoro-7-hydroxy-6,8-dioxo-1,2,3,4,6,8,12,12a-octahydro-1,4-methanodipyrido[1,2-a:1′,2′-d]pyrazine-9-carboxamide] were, in that order, 7690 nM and 1%.
The like results for `O=C(NCc1ccc(F)c(Cl)c1)c1cn2c(c(O)c1=O)C(=O)N1[C@H]3CC[C@H](C3)[C@@H]1C2` [Compound 75, (1R,4S,12aR)-N-(3-chloro-4-fluorobenzyl)-7-hydroxy-6,8-dioxo-1,2,3,4,6,8,12,12a-octahydro-1,4-methanodipyrido[1,2-a:1′,2′-d]pyrazine-9-carboxamide] were, in that order, 5290 nM and 0%.
As to `O=C(NCc1c(F)cc(F)cc1F)c1cn2c(c(O)c1=O)C(=O)N1[C@@H]3C[C@@H]([C@H](F)C3)[C@@H]1C2` [Compound 59, (1R,2R,4R,12aR)-2-fluoro-7-hydroxy-6,8-dioxo-N-(2,4,6-trifluorobenzyl)-1,2,3,4,6,8,12,12a-octahydro-1,4-methanodipyrido[1,2-a:1′,2′-d]pyrazine-9-carboxamide], in “in vitro” (CC50 nM in MT-4), the CC50 at 5 days was determined as 22200 nM. This compound displayed a maximal response (Emax) at 24 h, 15 µM on PXR of 4%.
Take `O=C(NCc1cccc(Cl)c1)c1cn2c(c(O)c1=O)C(=O)N1[C@H]3CC[C@H](C3)[C@@H]1C2` [Compound 72, (1R,4S,12aR)-N-(3-chlorobenzyl)-7-hydroxy-6,8-dioxo-1,2,3,4,6,8,12,12a-octahydro-1,4-methanodipyrido[1,2-a:1′,2′-d]pyrazine-9-carboxamide]: in “in vitro” (CC50 nM in MT-4), the CC50 at 5 days was 6260 nM. The Emax at 24 h, 15 µM on PXR was determined as 4%.
Turning to `C[C@@H](NC(=O)c1cn2c(c(O)c1=O)C(=O)N1[C@H]3CC[C@H](C3)O[C@@H]1C2)c1ccc(F)cc1` [Compound 10, (2R,5S,13aR)-N—((R)-1-(4-fluorophenyl)ethyl)-8-hydroxy-7,9-dioxo-2,3,4,5,7,9,13,13a-octahydro-2,5-methanopyrido[1′,2′:4,5]pyrazino[2,1-b][1,3]oxazepine-10-carboxamide], the CC50 at 5 days in “in vitro” (CC50 nM in MT-4) was determined as 3670 nM. Further, the maximum response (Emax) at 24 h, 15 µM on PXR was found to be 19%.
For `O=C(NCc1c(F)ccc(Cl)c1F)c1cn2c(c(O)c1=O)C(=O)N1[C@H]3CC[C@H](C3)[C@@H]1C2` [Compound 73, (1R,4S,12aR)-N-(3-chloro-2,6-difluorobenzyl)-7-hydroxy-6,8-dioxo-1,2,3,4,6,8,12,12a-octahydro-1,4-methanodipyrido[1,2-a:1′,2′-d]pyrazine-9-carboxamide], in that order: 9190 nM and 7%.
For `C[C@H]1CO[C@@H]2Cn3cc(C(=O)NC4(c5ccc(F)cc5F)CC4)c(=O)c(O)c3C(=O)N12` [Compound 37, (3S,11aR)-N-(1-(2,4-difluorophenyl)cyclopropyl)-6-hydroxy-3-methyl-5,7-dioxo-2,3,5,7,11,11a-hexahydrooxazolo[3,2-a]pyrido[1,2-d]pyrazine-8-carboxamide], in the data set “in vitro” (MT-4 cells, mock-infected, CC50 nM in MT-4, MT-4 cells, 5 days incubation), the CC50 at 5 days turned out to be 19500 nM. Also, the maximal response (Emax) at 24 h, 15 µM on PXR (setting [1]) came to 2%.
In the data set “in vitro” (CC50 nM in MT-4), `O=C(NC1(c2ccc(F)cc2F)CC1)c1cn2c(c(O)c1=O)C(=O)N1C(C2)O[C@@H]2CCC[C@H]1C2` (stereo partly drawn) [Compound 29, (2R,6S)-N-(1-(2,4-difluorophenyl)cyclopropyl)-9-hydroxy-8,10-dioxo-3,4,5,6,8,10,14,14a-octahydro-2H-2,6-methanopyrido[1′,2′:4,5]pyrazino[2,1-b][1,3]oxazocine-11-carboxamide] showed a CC50 at 5 days of 9450 nM. At PXR, the Emax at 24 h, 15 µM was found to be 3%.

These data come from patent US9663528B2, “Substituted 1,2,3,4,6,8,12,12a-octahydro-1,4-methanodipyrido[1,2-a:1',2'-d]pyrazines and methods for treating viral infections” (priority 2012, dated 2017).
